Measured values from ChEMBL document CHEMBL3407382, “Syntheses of chondroitin sulfate tetrasaccharide structures containing 4,6-disulfate patterns and analysis of their interaction with glycosaminoglycan-binding protein” (Bioorg Med Chem Lett, 2015).

molecular target: Fibroblast growth factor 2 (Homo sapiens, UniProt P09038); assay: Binding affinity to FGF2 (unknown origin) assessed as change in luminance intensity at 25 degC by SPR imaging sensor method; settings: not given
Sequence (P09038 143-288 limits assumed): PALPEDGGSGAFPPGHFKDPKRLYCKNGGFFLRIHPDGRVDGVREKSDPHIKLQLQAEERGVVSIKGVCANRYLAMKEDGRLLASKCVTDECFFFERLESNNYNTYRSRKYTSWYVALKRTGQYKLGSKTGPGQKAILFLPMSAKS

Structure (SMILES) | Kd
CC(=O)N[C@H]1[C@H](OC[C@@H](O)[C@@H](O)[C@H](O)[C@@H](O)CNc2cccc(NC(=O)CCCCC3CCSS3)c2)O[C@H](COS(=O)(=O)[O-])[C@H](OS(=O)(=O)[O-])[C@@H]1O[C@@H]1O[C@H](C(=O)O)[C@@H](O[C@@H]2O[C@H](COS(=O)(=O)[O-])[C@H](O)[C@H](O[C@@H]3O[C@H](C(=O)O)[C@@H](O)[C@H](O)[C@H]3O)[C@H]2NC(C)=O)[C@H](O)[C@H]1O.[Na+].[Na+].[Na+] (stereo partly drawn) | Not Active
CC(=O)N[C@H]1[C@H](O[C@H]2[C@H](O)[C@@H](OS(=O)(=O)O)[C@H](O[C@H]3[C@@H](O)[C@@H](COS(=O)(=O)O)O[C@@H](OC[C@@H](O)[C@@H](O)[C@H](O)[C@@H](O)CNc4cccc(NC(=O)CCCCC5CCSS5)c4)[C@@H]3NC(C)=O)O[C@@H]2C(=O)O)O[C@H](COS(=O)(=O)O)[C@H](O)[C@@H]1O[C@@H]1O[C@H](C(=O)O)[C@@H](O)[C@H](O)[C@H]1O (stereo partly drawn) | Not Active

same assay, conditions: read-out: Kd

Structure (SMILES) | Kd
CC(=O)N[C@H]1[C@H](OCC(O)C(O)C(O)C(O)CNc2cccc(NC(=O)CCCCC3CCSS3)c2)O[C@H](COS(=O)(=O)O)[C@H](OS(=O)(=O)O)[C@@H]1O[C@@H]1O[C@H](C(=O)O)[C@@H](O[C@@H]2O[C@H](COS(=O)(=O)O)[C@H](O)[C@H](O[C@@H]3O[C@H](C(=O)O)[C@@H](O)[C@H](O)[C@H]3OS(=O)(=O)O)[C@H]2NC(C)=O)[C@H](O)[C@H]1OS(=O)(=O)O (stereo partly drawn) | 16 nM
CC(=O)N[C@H]1[C@H](O[C@H]2[C@H](O)[C@@H](O)[C@H](O[C@@H]3[C@@H](NC(C)=O)[C@H](OC[C@@H](O)[C@@H](O)[C@H](O)[C@@H](O)CNc4cccc(NC(=O)CCCCC5CCSS5)c4)O[C@H](COS(=O)(=O)O)[C@@H]3OS(=O)(=O)O)O[C@@H]2C(=O)O)O[C@H](COS(=O)(=O)O)[C@H](OS(=O)(=O)O)[C@@H]1O[C@@H]1O[C@H](C(=O)O)[C@@H](O)[C@H](O)[C@H]1O (stereo partly drawn) | 5.2 nM

The next lines start with the values.

Kd | Structure (SMILES)
4.7 nM | CC(=O)N[C@H]1[C@H](O[C@H]2[C@H](O)[C@@H](OS(=O)(=O)O)[C@H](O[C@H]3[C@@H](O)[C@@H](COS(=O)(=O)O)O[C@@H](OC[C@@H](O)[C@@H](O)[C@H](O)[C@@H](O)CNc4cccc(NC(=O)CCCCC5CCSS5)c4)[C@@H]3NC(C)=O)O[C@@H]2C(=O)O)O[C@H](COS(=O)(=O)O)[C@H](OS(=O)(=O)O)[C@@H]1O[C@@H]1O[C@H](C(=O)O)[C@@H](O)[C@H](O)[C@H]1O (stereo partly drawn)
5.6 nM | CC(=O)N[C@H]1[C@H](O[C@H]2[C@H](O)[C@@H](O)[C@H](O[C@@H]3[C@@H](NC(C)=O)[C@H](OC[C@@H](O)[C@@H](O)[C@H](O)[C@@H](O)CNc4cccc(NC(=O)CCCCC5CCSS5)c4)O[C@H](CO)[C@@H]3OS(=O)(=O)O)O[C@@H]2C(=O)O)O[C@H](COS(=O)(=O)O)[C@H](OS(=O)(=O)O)[C@@H]1O[C@@H]1O[C@H](C(=O)O)[C@@H](O)[C@H](O)[C@H]1O (stereo partly drawn)
48 nM | CC(=O)N[C@H]1[C@H](OC[C@@H](O)[C@@H](O)[C@H](O)[C@@H](O)CNc2cccc(NC(=O)CCCCC3CCSS3)c2)O[C@H](COS(=O)(=O)O)[C@H](O)[C@@H]1O[C@@H]1O[C@H](C(=O)O)[C@@H](O[C@@H]2O[C@H](COS(=O)(=O)O)[C@H](O)[C@H](O[C@@H]3O[C@H](C(=O)O)[C@@H](O)[C@H](O)[C@H]3OS(=O)(=O)O)[C@H]2NC(C)=O)[C@H](O)[C@H]1OS(=O)(=O)O (stereo partly drawn)
8.2 nM | CC(=O)N[C@H]1[C@H](O[C@H]2[C@H](O)[C@@H](O)[C@H](O[C@H]3[C@@H](O)[C@@H](COS(=O)(=O)O)O[C@@H](OC[C@@H](O)[C@@H](O)[C@H](O)[C@@H](O)CNc4cccc(NC(=O)CCCCC5CCSS5)c4)[C@@H]3NC(C)=O)O[C@@H]2C(=O)O)O[C@H](COS(=O)(=O)O)[C@H](OS(=O)(=O)O)[C@@H]1O[C@@H]1O[C@H](C(=O)O)[C@@H](O)[C@H](O)[C@H]1O (stereo partly drawn)
